# Target: T1, recombinant human ALX receptor (Homo sapiens, UniProt P25090)
# T1 construct: expressed in transfected cells; host or cells: HEK293 (HEK293-hALXR-Gα16)
# T1 sequence (P25090 1-351): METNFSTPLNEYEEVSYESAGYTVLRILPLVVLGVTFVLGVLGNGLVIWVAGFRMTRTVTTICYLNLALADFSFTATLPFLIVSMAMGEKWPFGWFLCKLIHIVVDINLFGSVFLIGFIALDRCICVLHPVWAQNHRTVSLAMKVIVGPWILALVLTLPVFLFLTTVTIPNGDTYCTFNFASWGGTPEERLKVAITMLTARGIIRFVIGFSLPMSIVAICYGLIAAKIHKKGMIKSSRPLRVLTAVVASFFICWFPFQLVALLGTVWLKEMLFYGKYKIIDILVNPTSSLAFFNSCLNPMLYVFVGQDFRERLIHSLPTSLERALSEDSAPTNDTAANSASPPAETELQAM
# Test: Intracellular calcium measurements (FLIPR), ALX receptor agonistic activity
# Type: cell-based
# Conditions: HEK293-hALXR-Gα16 cells, Fluo-4 calcium signal, normalized to WKYMVm 10 nM
# Method: The ALX receptor agonistic activity of the compounds of formula (I) is determined in accordance with the following experimental method.
# Intracellular Calcium Measurements:
# Cells expressing recombinant human ALX receptor and the G-protein Gα16 (HEK293-hALXR-Gα16) were grown to 80% confluency in Growing Medium (GM). Cells were detached from culture dishes with a cell dissociation buffer (Invitrogen, 13151-014), and collected by centrifugation at 1′000 rpm at rt for 5 min in Assay Buffer (AB) (equal parts of Hank's BSS (Gibco, 14065-049) and DMEM without Phenol Red (Gibco, 11880-028)). After 60 min incubation at 37° C. under 5% CO2 in AB supplemented with 1 μM Fluo-4 (AM) (Invitrogen, F14202) and 20 mM HEPES (Gibco, 15630-056), the cells were washed and resuspended in AB. They were then seeded onto 384-well FLIPR assay plates (Greiner, 781091) at 50′000 cells in 70 μl per well and sedimented by centrifugation at 1′000 rpm for 1 min. Stock solutions of test compounds were made up at a concentration of 10 mM in DMSO, and serially diluted in AB to concentrations required for activation dose response curves. WKYMVm (Phoenix Peptides) was used as a reference agonist. A FLIPR Tetra instrument (Molecular Devices) was operated according to the manufacturer's standard instructions, adding 4 μl of test compound dissolved at 10 mM in DMSO and diluted prior to the experiment in assay buffer to obtain the desired final concentration. Changes in fluorescence were monitored before and after the addition of test compounds at lex=488 nm and lem=540 nm. Emission peak values above base level after compounds addition were exported after base line subtraction. Values were normalized to high-level control (WKYMVm compound, 10 nM final concentration) after subtraction of the base line value (AB addition).
row,EC50,Compound
1,138 nM,"COc1c(F)cc(CC(NC(=O)N[C@H]2CC[C@H](O)CC2)c2nc3ccccc3[nH]2)cc1F (relative stereo) [Example 241, 1-(1-(1H-Benzo[d]imidazol-2-yl)-2-(3,5-difluoro-4-methoxyphenyl)ethyl)-3-(trans-4-hydroxycyclohexyl)urea]"
2,1.1 nM,"COc1ccc(CC(NC(=O)N[C@H]2CC[C@H](O)CC2)c2nc3ccc(F)cc3[nH]2)c(F)c1 (relative stereo) [Example 244, 1-(1-(6-Fluoro-1H-benzo[d]imidazol-2-yl)-2-(2-fluoro-4-methoxyphenyl)ethyl)-3-(trans-4-hydroxycyclohexyl)urea]"
3,10 nM,"COc1cc(F)c(CC(NC(=O)N[C@H]2CC[C@H](O)CC2)c2nc3ccccc3[nH]2)cc1F (relative stereo) [Example 247, 1-(1-(1H-Benzo[d]imidazol-2-yl)-2-(2,5-difluoro-4-methoxyphenyl)ethyl)-3-(trans-4-hydroxycyclohexyl)urea]"
4,3.9 nM,"CC(F)(F)c1ccc(CC(NC(=O)N[C@H]2CC[C@H](O)CC2)c2nc3ccccc3[nH]2)cc1 (relative stereo) [Example 393, 1-(1-(1H-Benzo[d]imidazol-2-yl)-2-(4-(1,1-difluoroethyl)phenyl)ethyl)-3-(trans-4-hydroxycyclohexyl)urea]"
5,6.4 nM,"COc1ccc(C(C)C(NC(=O)N[C@H]2CC[C@H](O)CC2)c2nc3ccccc3[nH]2)cc1 (relative stereo) [Example 395, 1-(1-(1H-Benzo[d]imidazol-2-yl)-2-(4-methoxyphenyl)propyl)-3-(trans-4-hydroxycyclohexyl)urea]"
6,26 nM,"COc1ccc(CC(NC(=O)N[C@H]2CC[C@H](O)CC2)c2nc3ccccc3[nH]2)c(C)c1 (relative stereo) [Example 396, 1-(1-(1H-Benzo[d]imidazol-2-yl)-2-(4-methoxy-2-methylphenyl)ethyl)-3-(trans-4-hydroxycyclohexyl)urea]"
7,0.8 nM,"COc1ccc(CC(NC(=O)N[C@H]2CC[C@H](O)CC2)c2nc3ccc(Br)cc3[nH]2)cc1 (relative stereo) [Example 424, 1-(1-(6-bromo-1H-benzo[d]imidazol-2-yl)-2-(4-methoxyphenyl)ethyl)-3-(trans-4-hydroxycyclohexyl)urea]"
8,374 nM,"COc1ccc(CC(NC(=O)N[C@H]2CC[C@H](O)CC2)c2nc3ncncc3[nH]2)cc1 (relative stereo) [Example 426, 1-(trans-4-hydroxycyclohexyl)-3-(2-(4-methoxyphenyl)-1-(7H-purin-8-yl)ethyl)urea]"
9,604 nM,"COc1ccc(CC(NC(=O)N[C@H]2CC[C@H](O)CC2)c2nc3cccnc3[nH]2)cc1 (relative stereo) [Example 427, 1-(1-(3H-imidazo[4,5-b]pyridin-2-yl)-2-(4-methoxyphenyl)ethyl)-3-(trans-4-hydroxycyclohexyl)urea]"
10,299 nM,"COc1ccc(CC(NC(=O)N[C@H]2CC[C@H](O)CC2)c2nc3ccncc3[nH]2)cc1 (relative stereo) [Example 428, 1-(1-(3H-imidazo[4,5-c]pyridin-2-yl)-2-(4-methoxyphenyl)ethyl)-3-(trans-4-hydroxycyclohexyl)urea]"
11,2 nM,"COc1ccc(CC(NC(=O)NC23CCC(O)(CC2)CC3)c2nc3ccccc3[nH]2)cc1F (single isomer, unassigned; ent-1) [Example 257, 1-(1-(1H-Benzo[d]imidazol-2-yl)-2-(3-fluoro-4-methoxyphenyl)ethyl)-3-(4-hydroxybicyclo[2.2.2]octan-1-yl)urea (ent-1)]"
12,40 nM,"O=C(NC(Cc1ccc(Br)c(F)c1)c1nc2ccccc2[nH]1)NC12CCC(O)(CC1)CC2 (single isomer, unassigned; ent-1) [Example 258, 1-(1-(1H-Benzo[d]imidazol-2-yl)-2-(4-bromo-3-fluorophenyl)ethyl)-3-(4-hydroxybicyclo[2.2.2]octan-1-yl)urea (ent-1)]"
